PubChem BioAssay (NCI)
Values joined by “and” are separate entries in the source; they are usually repeats but may differ in a detail not shown here. Identical values can stand only once.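 These data come from cells grown in 96-well plates and exposed to compound for 48 hours at five concentrations. GI50: concentration for 50% inhibition of growth. TGI is the concentration that stops growth completely.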

Columns and labels:
Assay in all cases: NCI anticancer screen, dose series, 48 h
LOX IMVI melanoma = test system: LOX IMVI melanoma
SR leukemia = test system: SR leukemia
UO-31 renal = test system: UO-31 renal
HOP-92 NSCLC = test system: HOP-92 NSCLC
A498 renal = test system: A498 renal
COLO 205 colon = test system: COLO 205 colon
OVCAR-5 ovarian = test system: OVCAR-5 ovarian
HCT-116 colon = test system: HCT-116 colon
DU-145 prostate = test system: DU-145 prostate
MCF7 breast = test system: MCF7 breast

| Compound | TGI (LOX IMVI melanoma) | TGI (SR leukemia) | TGI (UO-31 renal) | TGI (HOP-92 NSCLC) | TGI (A498 renal) | TGI (COLO 205 colon) | TGI (OVCAR-5 ovarian) | TGI (HCT-116 colon) | TGI (DU-145 prostate) | TGI (MCF7 breast) | GI50 (DU-145 prostate) | GI50 (MCF7 breast) | GI50 (LOX IMVI melanoma) | GI50 (UO-31 renal) | GI50 (HOP-92 NSCLC) | GI50 (A498 renal) | GI50 (COLO 205 colon) | GI50 (OVCAR-5 ovarian) | GI50 (HCT-116 colon) | GI50 (SR leukemia) |
| --- | --- | --- | --- | --- | --- | --- | --- | --- | --- | --- | --- | --- | --- | --- | --- | --- | --- | --- | --- | --- |
| COC(=O)c1cccn1C(=O)n1cccc1 | > 100 µM | > 100 µM | > 100 µM | > 100 µM | > 100 µM | > 100 µM | > 100 µM | > 100 µM |  |  |  |  |  |  |  |  |  |  |  |  |
| Nc1nnnn1CCO | > 100 µM |  | > 100 µM | > 100 µM | > 100 µM | > 100 µM | > 100 µM | > 100 µM | > 100 µM | > 100 µM |  |  |  |  |  |  |  |  |  |  |
| O=C(Nc1ccncc1)C(=O)c1cn(S(=O)(=O)c2ccc(Cl)cc2)c2ccccc12 | > 100 µM |  | > 100 µM | 19.9 µM | > 74.9 µM | > 100 µM | > 95.8 µM | > 48.9 µM | > 49.7 µM | 38.7 µM | 3.43 µM | 0.354 µM | 0.765 µM | 9.18 µM | 1.12 µM | 8.83 µM | > 61.5 µM | > 30.1 µM | 0.415 µM |  |
| O=C(CCN1CCN(c2ccccc2)CC1)N1CCc2c([nH]c3ccccc23)C1c1cccnc1 (stereo unspecified) | 30.6 µM | 59 µM | 26.1 µM | 37.7 µM | 37.7 µM | 26.7 µM | 34.6 µM | 28.1 µM |  |  |  |  |  |  |  |  |  |  |  |  |
| CC(=O)OC[C@@H](COC(=O)/C=C/c1ccc(O)cc1)OC1OC(CO)C(O)C(O)C1O (stereo partly specified) | > 100 µM | > 100 µM | > 100 µM | > 100 µM | > 100 µM | > 100 µM | > 100 µM | > 100 µM | > 100 µM |  |  |  |  |  |  |  |  |  |  |  |
| O=Nc1ccc(NO)c2ccccc12 | 12.1 µM | 62 µM | 26.4 µM |  | 36 µM | 29.3 µM | 35.5 µM | 12.7 µM | 31.5 µM | 31.3 µM | 17.4 µM | 10.5 µM | 2.78 µM | 13.2 µM |  | 18.9 µM | 14.7 µM | 18.6 µM | 3.15 µM | 16.3 µM |
| CCOC(=O)N1CCC(=O)C(CNC23CC4CC(CC(C4)C2)C3)C1 (stereo unspecified) | 41.5 µM | 51.6 µM | > 100 µM | 41 µM | > 100 µM | > 100 µM | > 100 µM |  |  |  |  |  |  |  |  |  |  |  |  |  |
| C[n+]1c2cc(N)ccc2cc2ccc(N)cc21 | 5.52 µM [middle of 4 runs] |  |  | 5.78 µM [middle of 4 runs] | 0.795 µM and 0.599 µM and 0.492 µM |  |  | 5.55 µM and 11.1 µM and 5.51 µM | 5.57 µM [middle of 4 runs] |  | 1.36 µM [middle of 4 runs] |  | 0.956 µM and 2.26 µM and 1.82 µM |  |  | 0.162 µM and 0.152 µM and 0.0719 µM | 441 nM [middle of 4 runs] | 1.1 µM [middle of 4 runs] | 622 nM [middle of 4 runs] | 687 nM [middle of 4 runs] |
| CC(=O)C1C(c2ccc(N(C)C)cc2)c2cc3c(cc2OC1(C)O)OCO3 (stereo unspecified) | > 100 µM |  | > 100 µM | 55.4 µM |  | > 100 µM |  | > 100 µM |  |  |  |  |  |  |  |  |  |  |  |  |
| Clc1ccc(-c2c3c(nn2-c2ccccn2)CCc2ccccc2-3)cc1Cl | > 100 µM | > 100 µM | > 100 µM |  | > 100 µM | > 100 µM | > 100 µM | > 100 µM | > 100 µM | > 100 µM | > 100 µM | > 100 µM | > 100 µM | > 100 µM |  | > 100 µM | > 100 µM | > 100 µM | 76.1 µM | 78.1 µM |
| O=C(c1ccccc1)C1OC12C(=O)Nc1c(Cl)cc(Cl)cc12 (stereo unspecified) | > 61.7 µM | 31.1 µM | > 100 µM | > 93.2 µM | > 100 µM | 41 µM | > 100 µM | > 71.9 µM |  |  |  |  |  |  |  |  |  |  |  |  |
| O=C(Nc1ccc(Cl)c(Cl)c1)Nc1c(Oc2ccc(Cl)c(Cl)c2)ccc(Cl)c1S(=O)(=O)O | > 100 µM | > 100 µM | > 100 µM |  | 6.26 µM | > 100 µM | > 100 µM | > 100 µM | > 100 µM | > 100 µM | 3.22 µM | 0.388 µM | 1.96 µM | 3.13 µM |  | 1.53 µM | 2.39 µM | 4.09 µM | 1.32 µM | 0.504 µM |
| Nc1nc2c(ncn2C2C=CC(CO)C2)c(=O)[nH]1 (stereo unspecified) |  | > 100 µM | > 100 µM | > 100 µM | > 100 µM | > 100 µM | > 100 µM | > 100 µM | > 100 µM | > 100 µM |  |  |  |  |  |  |  |  |  |  |
| CC12CCC3(OCCO3)C(OC(=O)c3ccccc3)=C1CCC21OCCO1 (stereo unspecified) | > 100 µM | > 100 µM | > 100 µM | > 100 µM | > 100 µM | > 100 µM | > 100 µM | > 100 µM |  |  |  |  |  |  |  |  |  |  |  |  |
| CCC[CH2][Sn]1([CH2]CCC)[O]CC(CN(C)Cc2ccccc2)[O]1 (stereo unspecified) | 16.2 µM | 23.7 µM | 24.7 µM | 19.7 µM | 29.4 µM | 16 µM | 25.3 µM | 29.2 µM |  |  |  |  | 4.12 µM | 12.2 µM | 3.94 µM | 15.1 µM | 5.31 µM | 12.7 µM | 15.7 µM | 4.31 µM |
| Cc1cccc(C)c1NC(=O)C1C(=O)N(c2c(C)cccc2C)C(=O)/C1=N\N (stereo unspecified) | > 100 µM | > 100 µM | > 100 µM | > 100 µM | > 100 µM | > 100 µM | > 100 µM | > 100 µM |  |  |  |  |  |  |  |  |  |  |  |  |
| CN1C(=O)C2C3C=C4c5ccccc5N(c5ccccc5)C4(C2C1=O)[C@H]1C(=O)N(C)C(=O)[C@@H]31 (stereo partly specified) | > 100 µM | > 100 µM | > 100 µM | > 100 µM | > 100 µM | > 100 µM | > 100 µM | > 100 µM |  |  |  |  |  |  |  |  |  |  |  |  |
| Oc1ccc2ccccc2c1N=Nc1ccsc1 | > 100 µM | > 100 µM | > 100 µM | > 100 µM | > 100 µM | > 100 µM | > 100 µM | > 100 µM |  |  |  |  |  |  |  |  |  |  |  |  |
| CO/N=C(\C)c1ccc(Nc2cc(-c3ccccc3)nc3ccc(OC)cc23)cc1 |  |  | > 100 µM | 6.77 µM |  | > 100 µM | 40.3 µM | 3.77 µM | 21.3 µM | 24.4 µM | 5.36 µM | 5.01 µM |  | 5.19 µM | 2.14 µM |  | 7.02 µM | 5.2 µM | 1.76 µM |  |
| C[C@]12CC/C(=N\O)C=C1CC[C@@H]1C2CC[C@@]2(C)C1CC[C@@H]2OC1CCCCO1 (stereo partly specified) | 37.4 µM |  | 43.7 µM | 31.9 µM | > 100 µM | 32.6 µM | 29 µM | 43.8 µM |  |  |  |  |  |  |  |  |  |  |  |  |
